For 29 molecules, EC50 results are on record in US11787796B2, “Plasma Kallikrein inhibitors and uses thereof” (Takeda Pharmaceutical Company Limited, priority 2019, dated 2023).

Usually EC50 stands for the concentration giving half of the maximal effect.

SMILES strings stand for the structures.

The target of the first experiment is human activated kallikrein enzyme (Homo sapiens (Human), UniProt P03952). The experiment in a line: Plasma kallikrein inhibition assay with fluorogenic peptide substrate, 500 pM activated kallikrein format. The class given is biochemical. As to conditions: 500 pM activated kallikrein; 300 uM Pro-Phe-Arg-7-amido-4-methylcoumarin substrate; 30 min preincubation, 10 min reaction at RT; read-out: Primary Dose Response Assay: Average EC50. The gist of the method: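 Pro-Phe-Arg-7-amido-4-methylcoumarin substrate (300 uM) started reactions after a 30 min RT enzyme–inhibitor preincubation. This format used 500 pM activated human kallikrein in Tris pH 7.5 buffer with EDTA, NaCl, PEG-400 and Triton X-100. AMC fluorescence (380/460 nm) was measured after 10 min at RT.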
Sequence of human activated kallikrein enzyme (P03952 391-638): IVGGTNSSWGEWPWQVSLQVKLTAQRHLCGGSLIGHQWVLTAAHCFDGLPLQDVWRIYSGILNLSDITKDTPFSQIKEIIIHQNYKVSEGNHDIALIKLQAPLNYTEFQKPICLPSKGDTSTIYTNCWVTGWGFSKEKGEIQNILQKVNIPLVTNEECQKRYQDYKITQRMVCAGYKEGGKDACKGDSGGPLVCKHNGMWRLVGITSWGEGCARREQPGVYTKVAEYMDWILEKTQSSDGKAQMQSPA
Sequence of human activated kallikrein enzyme (P03952 20-390 partner): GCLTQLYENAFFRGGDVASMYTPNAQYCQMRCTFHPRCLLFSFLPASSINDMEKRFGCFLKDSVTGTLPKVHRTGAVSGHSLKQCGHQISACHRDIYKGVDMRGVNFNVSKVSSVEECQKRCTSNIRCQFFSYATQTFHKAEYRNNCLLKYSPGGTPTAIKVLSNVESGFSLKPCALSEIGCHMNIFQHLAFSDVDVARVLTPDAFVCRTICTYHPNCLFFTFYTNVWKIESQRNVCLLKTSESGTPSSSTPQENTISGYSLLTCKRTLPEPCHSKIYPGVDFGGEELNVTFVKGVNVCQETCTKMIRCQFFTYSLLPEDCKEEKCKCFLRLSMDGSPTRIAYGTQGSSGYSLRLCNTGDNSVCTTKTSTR
Turning to `O=C(NCc1cc2c(cn1)CCO2)c1cn(Cc2cn3cc(C4CC4)ccc3n2)nn1` [Example I-141, 1-((6-cyclopropylimidazo[1,2-a]pyridin-2-yl)methyl)-N-((2,3-dihydrofuro[3,2-c]pyridin-6-yl)methyl)-1H-1,2,3-triazole-4-carboxamide], the EC50 fell in the range of 10 to 100 nM.

Take `COc1ccc(-n2cnnn2)c(CNC(=O)c2cnc3n2C(c2cn4cc(C5CC5)ccc4n2)CC3)c1F` (centres unmarked) [Example I-24, 5-(6-cyclopropylimidazo[1,2-a]pyridin-2-yl)-N-(2-fluoro-3-methoxy-6-(1H-tetrazol-1-yl)benzyl)-6,7-dihydro-5H-pyrrolo[1,2-a]imidazole-3-carboxamide]: the EC50 fell in the range of 2000 to 7100 nM.

Turning to `O=C(NCc1c(-n2cnnn2)ccc(Cl)c1F)c1cn(Cc2cn3cc(C4CC4)ccc3n2)nn1` [Example I-106, N-(3-chloro-2-fluoro-6-(1H-tetrazol-1-yl)benzyl)-1-((6-cyclopropylimidazo[1,2-a]pyridin-2-yl)methyl)-1H-1,2,3-triazole-4-carboxamide], the EC50 was not above 1 nM.

With `COc1ccc(F)c(CNC(=O)c2cn(Cc3cn4cc(C5CC5)ccc4n3)nn2)c1F` [Example I-64, 1-((6-cyclopropylimidazo[1,2-a]pyridin-2-yl)methyl)-N-(2,6-difluoro-3-methoxybenzyl)-1H-1,2,3-triazole-4-carboxamide], the EC50 lay within 10 to 100 nM.

For the molecule `COc1ccc(-n2cnc(C(F)(F)F)n2)c(CNC(=O)c2cn(Cc3cn4cc(C5CC5)ccc4n3)nn2)c1F` [Example I-52, 1-((6-cyclopropylimidazo[1,2-a]pyridin-2-yl)methyl)-N-(2-fluoro-3-methoxy-6-(3-(trifluoromethyl)-1H-1,2,4-triazol-1-yl)benzyl)-1H-1,2,3-triazole-4-carboxamide], the half-maximal effective concentration (EC50) is not above 1 nM.

On to `COc1ccc(F)c(CNC(=O)c2cn(Cc3cn4cc(C5CC5)cc(CC(C)(C)C#N)c4n3)nn2)c1F` [Example I-12, 1-((8-(2-cyano-2-methylpropyl)-6-cyclopropylimidazo[1,2-a]pyridin-2-yl)methyl)-N-(2,6-difluoro-3-methoxybenzyl)-1H-1,2,3-triazole-4-carboxamide], for which the EC50 was in the range of 1 to 10 nM.

As to `COC(=O)c1ncc(-c2ccc(OC)c(F)c2CNC(=O)c2cn(Cc3cn4cc(C5CC5)ccc4n3)nn2)cn1` [Example I-75, Methyl 5-(2-((1-((6-cyclopropylimidazo[1,2-a]pyridin-2-yl)methyl)-1H-1,2,3-triazole-4-carboxamido)methyl)-3-fluoro-4-methoxyphenyl)pyrimidine-2-carboxylate], the EC50 was 1 to 10 nM.

`COc1ccc(-n2cnnn2)c(CNC(=O)c2cn(Cc3cn4cc(C5CC5)cc(CN)c4n3)nn2)c1F` [Example I-25, 1-((8-(aminomethyl)-6-cyclopropylimidazo[1,2-a]pyridin-2-yl)methyl)-N-(2-fluoro-3-methoxy-6-(1H-tetrazol-1-yl)benzyl)-1H-1,2,3-triazole-4-carboxamide]: the EC50 was not above 1 nM.

Consider `O=C(NCc1ccc2nccn2c1)c1cn(Cc2cn3cc(C4CC4)ccc3n2)nn1` [Example I-136, 1-((6-cyclopropylimidazo[1,2-a]pyridin-2-yl)methyl)-N-(imidazo[1,2-a]pyridin-6-ylmethyl)-1H-1,2,3-triazole-4-carboxamide], for which the EC50 fell in the range of 100 to 2000 nM.

Regarding `COc1ccc(S(C)(=O)=O)c(CNC(=O)c2cn(Cc3cn4cc(C5CC5)ccc4n3)nn2)c1F` [Example I-53, 1-((6-cyclopropylimidazo[1,2-a]pyridin-2-yl)methyl)-N-(2-fluoro-3-methoxy-6-(methylsulfonyl)benzyl)-1H-1,2,3-triazole-4-carboxamide], the EC50 was in the range of 100 to 2000 nM.

As to `COc1ccc(-c2cn[nH]c2)c(CNC(=O)c2cn(Cc3cn4cc(C5CC5)ccc4n3)nn2)c1F` [Example I-67, 1-((6-cyclopropylimidazo[1,2-a]pyridin-2-yl)methyl)-N-(2-fluoro-3-methoxy-6-(1H-pyrazol-4-yl)benzyl)-1H-1,2,3-triazole-4-carboxamide], the EC50 is 1 to 10 nM.

Consider `COc1ccc(-n2cnnn2)c(CNC(=O)c2c(C)nn(Cc3cn4cc(C5CC5)ccc4n3)c2C)c1F` [Example I-15, 1-((6-cyclopropylimidazo[1,2-a]pyridin-2-yl)methyl)-N-(2-fluoro-3-methoxy-6-(1H-tetrazol-1-yl)benzyl)-3,5-dimethyl-1H-pyrazole-4-carboxamide], for which the EC50 fell in the range of 100 to 2000 nM.

On to `COc1ccc(-n2cnnn2)c(CNC(=O)c2ccn(Cc3cn4cc(C5CC5)ccc4n3)c2)c1F` [Example I-54, 1-((6-cyclopropylimidazo[1,2-a]pyridin-2-yl)methyl)-N-(2-fluoro-3-methoxy-6-(1H-tetrazol-1-yl)benzyl)-1H-pyrrole-3-carboxamide], for which the EC50 is not above 1 nM.

Consider `O=C(NCc1cc2c(cn1)NCC2)c1cn(Cc2cn3cc(C4CC4)ccc3n2)nn1` [Example I-148, 1-((6-cyclopropylimidazo[1,2-a]pyridin-2-yl)methyl)-N-((2,3-dihydro-1H-pyrrolo[2,3-c]pyridin-5-yl)methyl)-1H-1,2,3-triazole-4-carboxamide], for which the EC50 is 100 to 2000 nM.

Take `Cc1cc2[nH]cc(Cl)c2c(C)c1CNC(=O)c1cnn(Cc2cn3cc(C4CC4)ccc3n2)c1` [Example I-123, N-((3-chloro-4,6-dimethyl-1H-indol-5-yl)methyl)-1-((6-cyclopropylimidazo[1,2-a]pyridin-2-yl)methyl)-1H-pyrazole-4-carboxamide]: the EC50 fell in the range of 10 to 100 nM.

As to `CC(NS(=O)(=O)c1cnn(Cc2cn3cc(C4CC4)ccc3n2)c1)c1ccc(Cl)cc1` (centres unmarked) [Example I-37], the EC50 was more than 7100 nM.

For the molecule `COc1ccc(F)c(CNC(=O)c2cn(Cc3cn4cc(C5CC5)cc(CN)c4n3)nn2)c1F` [Example I-13, 1-((8-(aminomethyl)-6-cyclopropylimidazo[1,2-a]pyridin-2-yl)methyl)-N-(2,6-difluoro-3-methoxybenzyl)-1H-1,2,3-triazole-4-carboxamide], the concentration giving a half-maximal response (EC50) lay in the range of 1 to 10 nM.

Take `Cc1cc(C(=N)N)cc(C)c1CNC(=O)c1cn(Cc2cn3cc(C4CC4)ccc3n2)nn1` [Example I-115, N-(4-carbamimidoyl-2,6-dimethylbenzyl)-1-((6-cyclopropylimidazo[1,2-a]pyridin-2-yl)methyl)-1H-1,2,3-triazole-4-carboxamide]: the EC50 was not above 1 nM.

In the case of `NCc1cc(C2CC2)cn2cc(Cn3cc(C(=O)NC4CCc5c4ccnc5N)nn3)nc12` (centres unmarked) [Example I-10, N-(1-amino-6,7-dihydro-5H-cyclopenta[c]pyridin-5-yl)-1-((8-(aminomethyl)-6-cyclopropylimidazo[1,2-a]pyridin-2-yl)methyl)-1H-1,2,3-triazole-4-carboxamide], the EC50 was not above 1 nM.

For the molecule `O=C(NCc1cccc(Cl)c1)c1cnn(Cc2cn3cc(C4CC4)ccc3n2)c1` [Example I-121, N-(3-chlorobenzyl)-1-((6-cyclopropylimidazo[1,2-a]pyridin-2-yl)methyl)-1H-pyrazole-4-carboxamide], the EC50 lay within 100 to 2000 nM.

Take `O=S(=O)(NCc1cccc(Cl)c1)c1cnn(Cc2cn3cc(C4CC4)ccc3n2)c1` [Example I-47, N-(3-chlorobenzyl)-1-((6-cyclopropylimidazo[1,2-a]pyridin-2-yl)methyl)-1H-pyrazole-4-sulfonamide]: the EC50 is more than 7100 nM.

As for `COc1ncc(C#N)c(CNC(=O)c2cn(Cc3cn4cc(C5CC5)ccc4n3)nn2)c1F` [Example I-72, N-((5-cyano-3-fluoro-2-methoxypyridin-4-yl)methyl)-1-((6-cyclopropylimidazo[1,2-a]pyridin-2-yl)methyl)-1H-1,2,3-triazole-4-carboxamide], the EC50 was in the range of 100 to 2000 nM.

Consider `Cc1cc(N)nc(C)c1CNC(=O)c1cn(Cc2cn3cc(C4CC4)ccc3n2)nn1` [Example I-26, N-((6-amino-2,4-dimethylpyridin-3-yl)methyl)-1-((6-cyclopropylimidazo[1,2-a]pyridin-2-yl)methyl)-1H-1,2,3-triazole-4-carboxamide], for which the EC50 is not above 1 nM.

In the case of `CCOC(=O)CCc1cc(C2CC2)cn2cc(Cn3cc(C(=O)NCc4c(-n5cnnn5)ccc(OC)c4F)nn3)nc12` [Example I-89, ethyl 3-(6-cyclopropyl-2-((4-((2-fluoro-3-methoxy-6-(1H-tetrazol-1-yl)benzyl)carbamoyl)-1H-1,2,3-triazol-1-yl)methyl)imidazo[1,2-a]pyridin-8-yl)propanoate], the EC50 was not above 1 nM.

For `COc1ccc(-c2ccncc2)c(CNC(=O)c2cn(Cc3cn4cc(C5CC5)ccc4n3)nn2)c1F` [Example I-101, 1-((6-cyclopropylimidazo[1,2-a]pyridin-2-yl)methyl)-N-(2-fluoro-3-methoxy-6-(pyridin-4-yl)benzyl)-1H-1,2,3-triazole-4-carboxamide], the EC50 was 1 to 10 nM.

With `O=C(NCc1cc2c(Cl)c[nH]c2cn1)c1cn(Cc2cn3cc(C4CC4)ccc3n2)nn1` [Example I-146, N-((3-chloro-1H-pyrrolo[2,3-c]pyridin-5-yl)methyl)-1-((6-cyclopropylimidazo[1,2-a]pyridin-2-yl)methyl)-1H-1,2,3-triazole-4-carboxamide], the EC50 lay in the range of 1 to 10 nM.

As for `COc1ccnc(CNC(=O)c2cn(Cc3cn4cc(C5CC5)ccc4n3)nn2)c1F` [Example I-7, 1-((6-cyclopropylimidazo[1,2-a]pyridin-2-yl)methyl)-N-((3-fluoro-4-methoxypyridin-2-yl)methyl)-1H-1,2,3-triazole-4-carboxamide], the EC50 fell in the range of 10 to 100 nM.

For the molecule `Cc1cc2c(c(N)n1)CCC2NC(=O)c1cn(Cc2cn3cc(C4CC4)ccc3n2)nn1` (centres unmarked) [Example I-16, N-(1-amino-3-methyl-6,7-dihydro-5H-cyclopenta[c]pyridin-5-yl)-1-((6-cyclopropylimidazo[1,2-a]pyridin-2-yl)methyl)-1H-1,2,3-triazole-4-carboxamide], the EC50 was not above 1 nM.

Still in this experiment, the particulars now being: comparative compounds (Table III); 500 pM activated kallikrein format; read-out: Primary Dose Response Assay: Average EC50.
As for `O=C(NCc1ncn2ccc(Cl)c(F)c12)c1cn(Cc2cn3ccccc3n2)nn1`, the EC50 fell in the range of 10 to 100 nM.
